Test results: ChEMBL document CHEMBL1201862, “PubChem BioAssay data set” (2004)
Active and inactive are the calls of the source.

Legend:
Jurkat = assay: antigen receptor-induced NF-kB inhibitors, dose response, Jurkat, luciferase reporter, luminescence, B- and T-cell (AID 489004); type: functional, cell-based; details: Homo sapiens;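 also: NF-kB luciferase reporter Jurkat cells stimulated with PMA plus ionomycin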
Protein Wnt-3a = Protein Wnt-3a (Mus musculus, UniProt P27467); assay: Wnt3a-driven reporter signaling inhibition, dose response, selectivity assay for Gli-SUFU antagonist project, Wnt-LIGHT cells, luminescence (AID 651570); type: functional; details: read-out: IC50_Mean;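 also: Wnt-LIGHT reporter cells stimulated with conditioned medium from Wnt3a-producing cells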
Chain of Protein Wnt-3a (P27467 whole entry): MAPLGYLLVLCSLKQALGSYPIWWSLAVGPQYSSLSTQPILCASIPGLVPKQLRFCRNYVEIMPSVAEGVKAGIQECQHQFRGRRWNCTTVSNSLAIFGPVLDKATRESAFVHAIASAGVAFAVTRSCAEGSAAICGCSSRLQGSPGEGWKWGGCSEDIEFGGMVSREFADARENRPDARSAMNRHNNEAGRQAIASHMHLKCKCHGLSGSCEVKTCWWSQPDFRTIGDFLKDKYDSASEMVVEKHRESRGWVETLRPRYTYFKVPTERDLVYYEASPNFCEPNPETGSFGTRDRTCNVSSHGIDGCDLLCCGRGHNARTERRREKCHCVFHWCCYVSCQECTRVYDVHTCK

[1] = biological target: T1, COUP transcription factor 2 (Homo sapiens, UniProt P24468); assay: Luminescence-based cell-based high throughput dose response assay to identify inhibitors of COUP-TFII (NR2F2).; type: functional;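 also: HEK293 cells transiently cotransfected with COUP-TFII expression vector and reporter; luciferase reporter luminescence driven by COUP-TFII from the pX2-168 reporter plasmid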
T1 sequence (P24468 whole entry): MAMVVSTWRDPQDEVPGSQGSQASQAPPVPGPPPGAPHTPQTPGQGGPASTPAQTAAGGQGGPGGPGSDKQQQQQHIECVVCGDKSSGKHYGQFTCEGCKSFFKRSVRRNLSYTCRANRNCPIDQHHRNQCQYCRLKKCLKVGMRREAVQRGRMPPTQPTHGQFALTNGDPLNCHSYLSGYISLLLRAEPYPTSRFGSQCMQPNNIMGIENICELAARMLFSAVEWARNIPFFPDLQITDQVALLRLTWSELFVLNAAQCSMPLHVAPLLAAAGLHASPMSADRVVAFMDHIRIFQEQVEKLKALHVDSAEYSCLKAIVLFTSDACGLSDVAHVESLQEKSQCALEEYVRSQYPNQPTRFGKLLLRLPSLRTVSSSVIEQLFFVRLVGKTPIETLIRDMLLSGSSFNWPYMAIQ

[2] = cytotoxicity in HEK-293T NF-kB-Luc cells, dose response, cytotoxicity control for B/T-cell NF-kB inhibitor project, cell-based, uHTS hits (AID 489019); type: functional;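 also: IC50 reflects cytotoxicity as loss of cell viability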
[3] = Shn3 3'UTR reporter inhibitors, dose response, cell-based, Clone20 osteoblasts, firefly luciferase, cherry-picked (AID 624132); type: functional;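 also: firefly luciferase luminescence from reporter carrying the Shn3 3'UTR in osteoblasts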
[4] = control 3'UTR Renilla luciferase suppression, dose response, counter-screen for Shn3 inhibitor project, cell-based, Clone20-Shn3RL, cherry-picked (AID 624133); type: functional
INS1 = assay: beta cell apoptosis inhibitors, cytokine rescue, dose response, luminescence, retest (AID 449756); type: functional, cell-based; details: Rattus norvegicus;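 also: cell death triggered by IL-1 beta plus TNF-alpha plus IFN-gamma mixture; protective hits raise ATP signal compared with cytokine alone wells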
HEK293 [5] = assay: cells; details: Homo sapiens
HEK293 [6] = assay: cells; details: Homo sapiens; remark: listed apart in the source
[7] = THP-1 cell cytotoxicity, dose response, cytotoxicity control for non-replicating M. tuberculosis project (AID 489025); type: functional
cells = type: functional
Ion channel NompC = Ion channel NompC (Danio rerio, UniProt Q7T1G6); assay: Dose response cell-based high-throughput screening assay for agonists of the transient receptor potential channel N1 (TRPN1). [Related pubchem assays (depositor defined):AID1424, AID1448]; type: functional
Chain of Ion channel NompC (Q7T1G6 whole entry): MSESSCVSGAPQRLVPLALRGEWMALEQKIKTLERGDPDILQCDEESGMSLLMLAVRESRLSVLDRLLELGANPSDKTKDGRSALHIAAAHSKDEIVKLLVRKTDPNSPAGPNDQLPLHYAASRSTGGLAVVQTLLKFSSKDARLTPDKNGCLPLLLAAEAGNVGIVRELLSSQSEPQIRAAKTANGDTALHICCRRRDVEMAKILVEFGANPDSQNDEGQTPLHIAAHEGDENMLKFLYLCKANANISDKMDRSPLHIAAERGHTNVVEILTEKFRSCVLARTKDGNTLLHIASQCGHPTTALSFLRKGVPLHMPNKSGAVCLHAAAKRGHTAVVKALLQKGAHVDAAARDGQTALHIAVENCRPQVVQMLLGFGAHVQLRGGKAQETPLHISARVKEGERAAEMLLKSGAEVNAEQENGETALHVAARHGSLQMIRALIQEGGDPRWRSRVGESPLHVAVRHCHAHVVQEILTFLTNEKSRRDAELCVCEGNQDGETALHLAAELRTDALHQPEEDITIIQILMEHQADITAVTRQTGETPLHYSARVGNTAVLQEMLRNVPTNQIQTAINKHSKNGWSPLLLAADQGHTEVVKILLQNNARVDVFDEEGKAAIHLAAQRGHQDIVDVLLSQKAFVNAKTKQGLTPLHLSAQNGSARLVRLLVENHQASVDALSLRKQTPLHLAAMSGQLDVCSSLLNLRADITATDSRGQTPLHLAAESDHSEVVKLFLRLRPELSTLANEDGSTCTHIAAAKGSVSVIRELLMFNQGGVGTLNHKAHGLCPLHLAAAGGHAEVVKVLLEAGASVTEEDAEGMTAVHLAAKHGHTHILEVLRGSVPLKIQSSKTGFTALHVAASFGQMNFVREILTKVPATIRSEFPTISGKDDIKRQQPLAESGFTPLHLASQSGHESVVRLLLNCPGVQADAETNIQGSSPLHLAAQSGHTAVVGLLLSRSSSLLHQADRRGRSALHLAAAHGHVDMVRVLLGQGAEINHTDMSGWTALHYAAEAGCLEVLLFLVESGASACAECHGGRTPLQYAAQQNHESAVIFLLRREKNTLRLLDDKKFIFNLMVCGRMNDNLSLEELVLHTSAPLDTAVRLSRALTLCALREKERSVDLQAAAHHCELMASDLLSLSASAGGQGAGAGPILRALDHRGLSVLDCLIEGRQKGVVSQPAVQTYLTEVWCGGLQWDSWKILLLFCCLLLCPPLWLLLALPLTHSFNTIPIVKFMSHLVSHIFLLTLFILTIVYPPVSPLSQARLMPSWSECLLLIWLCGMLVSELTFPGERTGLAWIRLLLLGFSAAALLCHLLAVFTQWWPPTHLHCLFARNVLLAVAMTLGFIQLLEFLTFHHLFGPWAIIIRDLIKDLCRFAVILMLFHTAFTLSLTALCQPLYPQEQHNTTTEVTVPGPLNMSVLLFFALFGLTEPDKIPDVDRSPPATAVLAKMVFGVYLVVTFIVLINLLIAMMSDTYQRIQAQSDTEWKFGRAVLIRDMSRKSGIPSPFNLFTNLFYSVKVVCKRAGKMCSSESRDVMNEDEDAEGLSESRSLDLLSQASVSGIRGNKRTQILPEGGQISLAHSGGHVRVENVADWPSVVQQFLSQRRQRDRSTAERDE

[8] = HepG2 cell cytotoxicity, dose response, cytotoxicity control for Shn3 inhibitor project, CellTiter-Glo, cherry-picked (AID 624134); type: functional, cell-based
[9] = Vero E6 cell cytotoxicity, dose response, cytotoxicity control for non-replicating M. tuberculosis project, secondary assay (AID 492998); type: functional, VeroE6; details: Vero C1008
[10] = HepG2 cell cytotoxicity, dose response, cytotoxicity control for non-replicating M. tuberculosis project (AID 489018); type: functional; details: Mycobacterium tuberculosis
Mucolipin-3 = biological target: T2, Mucolipin-3 (Homo sapiens, UniProt Q8TDD5); assay: Fluorescence counterscreen assay for […] agonists: dose response cell-based high-throughput screening assay to identify agonists of the transient receptor potential channel ML3 (TRPML3). [Related pubchem assays: 1424, 1448 ]; type: functional
T2 sequence (Q8TDD5 whole entry): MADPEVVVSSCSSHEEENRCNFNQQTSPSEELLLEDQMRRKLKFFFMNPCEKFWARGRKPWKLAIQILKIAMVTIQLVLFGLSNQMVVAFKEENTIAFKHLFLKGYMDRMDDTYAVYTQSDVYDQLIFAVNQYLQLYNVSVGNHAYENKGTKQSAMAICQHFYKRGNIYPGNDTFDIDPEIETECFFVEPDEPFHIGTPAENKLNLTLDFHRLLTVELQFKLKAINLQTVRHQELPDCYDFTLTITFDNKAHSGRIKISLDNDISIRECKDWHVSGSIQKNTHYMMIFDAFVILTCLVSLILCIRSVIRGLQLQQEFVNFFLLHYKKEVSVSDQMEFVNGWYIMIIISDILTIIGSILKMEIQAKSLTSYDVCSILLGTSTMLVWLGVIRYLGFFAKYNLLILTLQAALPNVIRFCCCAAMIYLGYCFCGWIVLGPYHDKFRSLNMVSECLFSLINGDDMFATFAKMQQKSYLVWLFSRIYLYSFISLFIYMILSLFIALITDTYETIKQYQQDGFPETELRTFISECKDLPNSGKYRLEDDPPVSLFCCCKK

HeLa = assay: Cytotoxicity counterscreen assay for transcriptional activators of heat shock protein 70 (Hsp70). [Related pubchem assays: 1203, 1252 ]; type: functional; details: Homo sapiens;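 also: cells exposed to compound for 16 hours before readout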
[11] = biological target: T3, Aryl hydrocarbon receptor (Homo sapiens, UniProt P35869); assay: Luminescence-based cell-based high throughput dose response assay for activators of the Aryl Hydrocarbon Receptor (AHR). [Related pubchem assays: 2796 (Primary screen (AHR activators in singlicate)), 2845 (Confirmation screen (AHR activators in triplicate)), 434939 (Counterscreen (PXR activators in triplicate)), 2804 (Summary (AHR activators))]; type: ADME
T3 sequence (P35869 whole entry): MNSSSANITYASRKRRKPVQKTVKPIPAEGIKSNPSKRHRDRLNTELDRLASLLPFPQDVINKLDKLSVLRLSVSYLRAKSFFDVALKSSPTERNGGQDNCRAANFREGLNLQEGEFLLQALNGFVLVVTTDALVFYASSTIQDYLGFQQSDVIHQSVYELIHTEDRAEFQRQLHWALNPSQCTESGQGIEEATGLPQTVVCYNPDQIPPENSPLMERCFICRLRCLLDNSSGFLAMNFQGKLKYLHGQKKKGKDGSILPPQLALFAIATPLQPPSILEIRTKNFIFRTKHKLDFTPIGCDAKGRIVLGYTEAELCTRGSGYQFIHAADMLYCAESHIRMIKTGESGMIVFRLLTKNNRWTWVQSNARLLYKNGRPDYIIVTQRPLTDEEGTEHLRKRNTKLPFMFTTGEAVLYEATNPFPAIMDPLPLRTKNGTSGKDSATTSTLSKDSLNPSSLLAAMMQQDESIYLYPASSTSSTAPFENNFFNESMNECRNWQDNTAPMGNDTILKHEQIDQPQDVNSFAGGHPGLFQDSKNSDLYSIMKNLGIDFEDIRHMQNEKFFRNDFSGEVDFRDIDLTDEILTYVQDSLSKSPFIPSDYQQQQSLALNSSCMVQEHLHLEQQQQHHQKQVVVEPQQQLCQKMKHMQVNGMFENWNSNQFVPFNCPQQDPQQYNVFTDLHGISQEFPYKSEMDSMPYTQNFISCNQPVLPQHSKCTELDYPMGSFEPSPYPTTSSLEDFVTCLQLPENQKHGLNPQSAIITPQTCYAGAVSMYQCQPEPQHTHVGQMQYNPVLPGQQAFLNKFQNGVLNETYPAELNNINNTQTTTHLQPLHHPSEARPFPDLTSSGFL

[12] = microbe, parasite or virus in culture; type: functional; details: Mycobacterium tuberculosis
Hexokinase HKDC1 = biological target: T4, Hexokinase HKDC1 (Homo sapiens, UniProt Q2TB90); assay: SAR analysis of small molecule inhibitors of hexokinase domain containing I (HKDC1). [Related pubchem assays (depositor defined):AID493160, AID493190]; type: functional
T4 sequence (Q2TB90 whole entry): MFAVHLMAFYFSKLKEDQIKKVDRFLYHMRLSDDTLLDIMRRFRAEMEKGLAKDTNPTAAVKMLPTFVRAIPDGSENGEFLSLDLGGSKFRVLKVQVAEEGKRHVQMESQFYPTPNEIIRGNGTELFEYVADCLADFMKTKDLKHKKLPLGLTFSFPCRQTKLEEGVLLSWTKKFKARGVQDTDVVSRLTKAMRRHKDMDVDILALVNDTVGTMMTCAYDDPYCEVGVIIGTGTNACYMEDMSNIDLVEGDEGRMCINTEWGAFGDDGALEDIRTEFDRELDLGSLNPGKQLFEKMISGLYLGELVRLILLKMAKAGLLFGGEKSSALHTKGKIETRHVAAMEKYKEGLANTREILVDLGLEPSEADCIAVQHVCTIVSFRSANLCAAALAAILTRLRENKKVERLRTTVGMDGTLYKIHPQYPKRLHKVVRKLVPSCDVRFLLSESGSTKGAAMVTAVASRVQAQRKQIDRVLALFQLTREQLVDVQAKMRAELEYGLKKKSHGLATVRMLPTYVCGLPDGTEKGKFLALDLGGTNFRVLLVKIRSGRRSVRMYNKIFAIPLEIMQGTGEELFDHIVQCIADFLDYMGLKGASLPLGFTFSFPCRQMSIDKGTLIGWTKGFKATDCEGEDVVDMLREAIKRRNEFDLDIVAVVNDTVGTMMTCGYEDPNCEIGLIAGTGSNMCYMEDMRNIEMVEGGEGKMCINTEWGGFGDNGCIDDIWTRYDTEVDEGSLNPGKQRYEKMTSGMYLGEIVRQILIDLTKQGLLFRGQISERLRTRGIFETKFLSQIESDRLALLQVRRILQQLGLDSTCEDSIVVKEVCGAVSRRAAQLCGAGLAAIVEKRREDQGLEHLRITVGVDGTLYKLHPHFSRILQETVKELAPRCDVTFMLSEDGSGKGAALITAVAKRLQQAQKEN

Hexokinase-1 = biological target: T5, Hexokinase-1 (Homo sapiens, UniProt P19367); assay: SAR analysis of small molecule inhibitors of hexokinase domain containing I (HKDC1) in the hexokinase 1 selectivity assay. [Related pubchem assays (depositor defined):AID493160, AID493190]; type: functional
T5 sequence (P19367 whole entry): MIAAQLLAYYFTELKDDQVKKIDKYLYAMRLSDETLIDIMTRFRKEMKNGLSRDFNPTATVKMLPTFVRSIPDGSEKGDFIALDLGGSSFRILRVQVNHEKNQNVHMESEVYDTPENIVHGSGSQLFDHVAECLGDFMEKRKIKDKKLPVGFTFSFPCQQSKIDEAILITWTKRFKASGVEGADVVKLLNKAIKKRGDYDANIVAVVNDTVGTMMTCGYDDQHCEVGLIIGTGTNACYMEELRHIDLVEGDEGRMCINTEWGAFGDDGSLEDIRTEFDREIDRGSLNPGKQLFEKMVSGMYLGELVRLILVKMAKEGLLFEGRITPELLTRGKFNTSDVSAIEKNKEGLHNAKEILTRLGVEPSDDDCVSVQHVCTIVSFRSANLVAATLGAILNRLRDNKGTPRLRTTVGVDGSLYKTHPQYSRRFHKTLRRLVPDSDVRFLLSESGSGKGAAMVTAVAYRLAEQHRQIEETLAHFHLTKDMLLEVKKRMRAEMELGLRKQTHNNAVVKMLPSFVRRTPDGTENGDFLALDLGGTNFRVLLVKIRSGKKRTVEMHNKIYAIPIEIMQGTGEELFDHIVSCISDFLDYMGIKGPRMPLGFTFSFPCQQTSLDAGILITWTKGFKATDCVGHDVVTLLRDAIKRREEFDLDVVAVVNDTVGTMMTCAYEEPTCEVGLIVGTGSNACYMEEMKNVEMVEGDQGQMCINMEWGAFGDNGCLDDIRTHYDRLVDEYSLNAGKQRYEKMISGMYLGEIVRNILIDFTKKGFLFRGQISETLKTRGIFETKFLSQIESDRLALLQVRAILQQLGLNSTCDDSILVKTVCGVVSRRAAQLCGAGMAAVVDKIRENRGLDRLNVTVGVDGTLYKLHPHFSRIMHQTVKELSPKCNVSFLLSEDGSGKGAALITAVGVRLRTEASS

CCOC(=O)C1CCCN(S(=O)(=O)c2ccc(S(=O)(=O)N(CC)CC)cc2)C1 (stereo not given)
inactive: IC50 (Jurkat) > 80 µM | IC50 [2] > 80 µM
active: IC50 (Protein Wnt-3a) 0.236 µM | IC50 [1] 4.75 µM | AC50 [3] 0.512 µM | AC50 [4] 0.801 µM | AC50 (INS1) 2.6 µM

Cc1cc(NC(=O)CSc2nc(C(C)C)nc3sc(C)c(C)c23)no1
inactive: EC50 (HEK293 [5]) > 59.7 µM | EC50 (HEK293 [6]) > 59.7 µM

CC(=O)Nc1sc2c(c1-c1nc3ccccc3s1)CCN(C(C)C)C2
active: CC50 [7] 3.78 µM | IC50 (cells) 5.98 µM | AC50 [8] 4.53 µM | CC50 [9] 3.05 µM | CC50 [10] 7.58 µM | CC50 (HeLa) 9.92 µM | EC50 (HEK293 [6]) > 2.21 µM | EC50 [11] > 1.13 µM | CC50 [12] 2.94 µM | AC50 [4] 20.1 µM | AC50 (INS1) 1.77 µM
inactive: EC50 (Ion channel NompC) 25.1 µM | EC50 (HEK293 [5]) > 59.6 µM
> 29.9 µM (not active): EC50 (Mucolipin-3)

Cc1ccoc1C(=O)Nc1cccc(C(=O)Nc2cccc(C(F)(F)F)c2)c1
inactive: IC50 (Hexokinase HKDC1) > 80 µM | IC50 (Hexokinase-1) > 80 µM
